According to US8524701B2, “Use of a specific cyclic amine derivative or the pharmaceutically acceptable salts thereof for the treatment or prevention of heart failure” (Boehringer Ingelheim Pharma GmbH & Co. KG, priority 2002, dated 2013):
Where two headings read alike, the source gives them in different places.

What was measured:
[1] = test system: retinal system of the rat; experiment: Electroretinogram (ERG) responses from anesthetized pigmented rats as a function of stimulus frequency; type: in vivo; details: for effect on the ERG (visual side-effect): 30 minutes after injection
Excerpt: (§1) The aim of this experiment was to compare the visual side-effect of both drugs in another experimental animal model, namely on the retinal system of the rat. Furthermore, the aim of this experiment was also to compare the visual side-effect of both drugs in acute and in chronic (over two weeks) drug treatment conditions.
The principle of this experiment is again the same as the principle of the experiment performed by Gargini et al. and published in Vision research, vol.
The results of the experiment are visualized by plotting the measurement of the first amplitude of the Fourier transform of the ERG as a function of the applied stimulus frequency (oscillating light stimulus of high luminance and contrast).
The ERG measurements were made 30 minutes after injection of the drug.
The ERG measurement was made 30 minutes after injection of the drug.
(§2) The ERG measurement was made after the 2 weeks treatment.

cat eyes [2] = experiment: Electroretinogram (ERG) response to sinusoidally modulated luminances recorded from cat eyes; type: in vivo
Procedure: The content of these references, and more particularly the experimental parts described therein, are herein incorporated by reference.
These studies were based on a measurement of the electroretinogram (ERG) responses recorded from cat eyes, in normal conditions and after administration of zatebradine.
In the following experiment, the same experiment was performed using cilobradine, and the results compared to the results obtained with zatebradine.

cat eyes [3] = details: cited from earlier work
heart rate [4] = type: in vivo, cat; details: maximum effect, FIG. 1
Excerpt: This selection of the dose is based on the result shown in FIG. 1, wherein the reduction of heart rate is plotted against the applied dose of the drug (open circles: zatebradine; filled circles: cilobradine). […] Therefore, by choosing these doses, it can already be assumed that the pharmacological effect on heart rate of cilobradine is better than the pharmacological effect of zatebradine.

[5] = test system: hyperpolarisation activated, cAMP-modulated cation current channels (HCN) in cardiac conductive tissue; details: cited from earlier work
[6] = test system: patients with heart failure; details: Shinke et al. 1997; cited from earlier work
heart rate [7] = type: in vivo; details: rat
Procedure: as §1, with “A further similar experiment was performed in order to compare the visual side-effect of cilobradine and zatebradine in conditions where the drugs are pharmacologically effective in reducing heart rate. The” for “The”
The ERG measurements were made 30 minutes after injection of the drug. The measured heart rate frequency was:
The ERG measurement was made 30 minutes after injection of the drug. The measured heart rate frequency was:
as §2

COc1ccc(CCN(C)CCCN2CCc3cc(OC)c(OC)cc3CC2=O)cc1OC [zatebradine]
effect on the ERG (visual side-effect) ([1]; acute treatment, single dose 3 mg/kg, FIG. 5): a reduction of the amplitude of the response to stimuli of frequency above 1 Hz and a shift of the corresponding phase lags is observed
ERG response (visual side-effect) (cat eyes [2]; 15 minutes after 2.5 mg/kg body weight i.v. injection, FIG. 2): reduces the amplitude of the response to stimuli of frequency above 1 Hz and shift the corresponding phase lags
ERG response (visual side-effect) (cat eyes [2]; 5 hours after injection of 2.5 mg/kg body weight, FIG. 2): visual response is back to normal
ERG response amplitude (cat eyes [3]; after administration of zatebradine, Archives Italiennes de Biologie 1999, Vision Research 1999): reduces the amplitude of the response to stimuli of frequency above 1 Hz
cut-off introduced in the band-pass of the ERG response (cat eyes [3]; after intravenous injection or oral administration, decreased response amplitude in the range 2 to 15 Hertz): about 2 Hertz
reduction of the heart rate (heart rate [4]; dose of 2.5 mg/kg body weight): about 44%
block of HCN channels responsible for the current If [5]: selectively block
cardiac efficiency [6]: improved cardiac efficiency
measured heart rate frequency (heart rate [7]; acute treatment, single dose 3 mg/kg, 30 minutes after injection, control 428, FIG. 5): 333 beats per min.

COc1ccc(CCN2CCC[C@H](CN3CCc4cc(OC)c(OC)cc4CC3=O)C2)cc1OC [cilobradine, (+)-3-[(N-(2-(3,4-dimethoxy-phenyl)-ethyl)-piperidin-3-(S)-yl)-methyl]-7,8-dimethoxy-1,3,4,5-tetrahydro-2H-3-benzazepin-2-one]
visual side-effects ([1]; acute as well as chronic (2 weeks) treatment, FIGS. 4 and 6): without visual side-effects
effect on the ERG (visual side-effect) ([1]; acute treatment 0.3, 1 and 3 mg/kg, FIG. 4): no effect on the ERG can be detected
ERG response (visual side-effect) (cat eyes [2]; after injection of 0.75 mg/kg body weight, FIG. 3): no visual effect can be detected
reduction of the heart rate (heart rate [4]; dose of 0.75 mg/kg body weight): about 75%
block of HCN channels responsible for the current If [5]: selectively block
measured heart rate frequency (heart rate [7]; acute treatment 0.3 mg/kg, 30 minutes after injection, control 400, FIG. 4): 364 beats per min.
measured heart rate frequency (heart rate [7]; acute treatment 1 mg/kg, 30 minutes after injection, control 400, FIG. 4): 316 beats per min.
measured heart rate frequency (heart rate [7]; acute treatment 3 mg/kg, 30 minutes after injection, control 400, FIG. 4): 270 beats per min.
measured heart rate frequency (heart rate [7]; chronic treatment 2 weeks, FIG. 7, table row prints 1 mg/kg, text says double dose of 3 mg/kg per day, control 350): 285 beats per min.
measured heart rate frequency (heart rate [7]; chronic treatment, single dose 1 mg/kg per day during 2 weeks, control 400, FIG. 6): 260 beats per min.
